# Biological target: Protein cereblon/Interleukin-1 receptor-associated kinase 4 (Homo sapiens, UniProt Q9NWZ3+Q96SW2)
# Test: PROTAC activity at CRBN/IRAK4 in human HEK293T cells assessed as induction of IRAK4 degradation measured after 24 hrs by immunoblotting analysis
# Format: cell-based
# Protein cereblon/Interleukin-1 receptor-associated kinase 4, sequence (Q9NWZ3 whole entry): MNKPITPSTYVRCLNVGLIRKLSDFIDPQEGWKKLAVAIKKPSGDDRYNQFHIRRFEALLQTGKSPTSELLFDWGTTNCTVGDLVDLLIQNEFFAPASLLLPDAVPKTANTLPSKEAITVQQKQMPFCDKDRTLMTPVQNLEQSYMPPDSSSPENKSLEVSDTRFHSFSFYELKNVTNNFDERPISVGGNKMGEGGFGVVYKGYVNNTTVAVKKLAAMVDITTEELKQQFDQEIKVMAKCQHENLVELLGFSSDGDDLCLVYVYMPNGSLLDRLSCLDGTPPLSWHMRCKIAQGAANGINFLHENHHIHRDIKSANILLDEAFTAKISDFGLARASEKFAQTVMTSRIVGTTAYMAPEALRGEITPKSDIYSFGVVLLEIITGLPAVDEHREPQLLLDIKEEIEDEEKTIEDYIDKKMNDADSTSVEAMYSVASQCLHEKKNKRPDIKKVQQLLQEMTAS
# Protein cereblon/Interleukin-1 receptor-associated kinase 4, sequence (Q96SW2 whole entry): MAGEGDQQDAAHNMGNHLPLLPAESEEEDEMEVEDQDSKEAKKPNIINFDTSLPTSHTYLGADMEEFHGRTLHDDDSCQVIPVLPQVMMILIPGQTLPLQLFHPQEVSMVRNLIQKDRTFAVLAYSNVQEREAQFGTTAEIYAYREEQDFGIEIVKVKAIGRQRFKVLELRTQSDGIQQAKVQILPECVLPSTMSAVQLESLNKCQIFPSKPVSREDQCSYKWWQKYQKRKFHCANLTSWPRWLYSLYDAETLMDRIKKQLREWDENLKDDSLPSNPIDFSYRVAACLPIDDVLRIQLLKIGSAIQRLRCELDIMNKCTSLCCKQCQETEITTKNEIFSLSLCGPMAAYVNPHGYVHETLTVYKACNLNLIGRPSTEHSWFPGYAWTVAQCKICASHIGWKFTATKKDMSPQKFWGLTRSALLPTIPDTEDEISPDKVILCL
smiles,measurement,value
CC(C)Nc1cc(-n2ccc3cc(C#N)cnc32)ncc1C(=O)N[C@H]1CC[C@H](C(=O)NCCOCCNC(=O)COc2cccc3c2C(=O)N(C2CCC(=O)NC2=O)C3=O)CC1 (stereo partly specified),DC50,405 nM

# From ChEMBL document CHEMBL5614465, “Discovery of the First Clinical Protein Degrader for the Treatment of Autoimmune Indications: Orally Bioavailable and Selective IRAK4 Degrader KT-474” (J Med Chem, 2024)
